Experimental data taken from patent publication US5849922A, “Preparation of substituted alkenoic acids” (Eli Lilly and Company, priority 1997, dated 1998).

Tested on: TXA2 agonist activity
Assay: Absence of Agonist Activity (pressor response in pithed rats)
Format: in vivo
Source text: 3. Absence of Agonist Activity.

Row | Structure (SMILES) | pressor response following i.v. administration (i.v., doses up to 10 mg/kg) | increase in the mean arterial pressure (0.1 mg/kg i.v., at one minute after dosing)
1 | O=C(O)CCCC/C=C(\c1ccc(-c2nc(C(=O)NCCCCC3CCCCC3)co2)cc1)c1cccnc1 [Example 2, (E)-7-[4-[4-[[(4-Cyclohexylbutyl)amino]carbonyl]-2-oxazolyl]phenyl]-7-(3-pyridyl)hept-6-enoic Acid] | absence of a pressor response | 
2 | O=C(O)CCC/C=C\CC1C2CCC(C2)C1NS(=O)(=O)c1ccccc1 (centres unmarked) [Example S-145] |  | transient, but significant, increase in the mean arterial pressure
